Entries after “also recorded” stand apart in the source; their conditions may differ. Where two headings read alike, the source gives them in different places.
Legend:
[1] = cited from earlier work
[2] = Drug-drug interaction study: bardoxolone methyl alone and with itraconazole in healthy volunteers; details: itraconazole alone, 200 mg daily (Period 2)
[3] = Phase 1 drug-drug interaction study: omaveloxolone alone and with itraconazole in healthy subjects
cerebral granule neurons = details: cited from earlier work
CYP3A4/5 [4] = details: human liver microsomes and recombinantly-expressed CYPs
CYP3A4/5 [5] = experiment: in vitro; details: human, human liver microsomes
[6] = cited from earlier work; for Occurrence of Death / Occurrence of ESRD: ITT
[7] = Hygroscopicity of RTA 408 solid forms (DVS, TGA-MS); format: physicochemical
HIV = details: macrophages; cited from earlier work
[8] = monkey, in vivo; cited from earlier work
[9] = Chemical stability of RTA 408 amorphous form in organic solvents and aqueous media; format: physicochemical; details: 1 mg/mL; acetone, EtOAc, MeOH, MeCN, 1% aq. Tween 80, SDS, CTAB; 6 h, 24 h, 2 d, 7 d
Procedure: The chemical stability of the amorphous form was investigated in organic solvents, including acetone, EtOAc, MeOH, and MeCN, as well as different aqueous media (e.g., 1% aq. Tween 80, 1% aq. SDS, 1% aq. CTAB) at a concentration of 1 mg/mL at time points 6 h, 24 h, 2 d, and 7 d.

[10] = Storage stability of RTA 408 amorphous form under elevated temperature and humidity (PXRD); format: physicochemical; details: open at 25° C./62% r.h. and 40° C./75% r.h., closed at 60° C. and 80° C., up to four weeks
Procedure: In addition, the stability of the amorphous form was investigated by storage under elevated temperature and humidity conditions (open at 25° C./62% r.h. and 40° C./75% r.h. and closed at 60° C. and 80° C.). After one week, two weeks, and four weeks, the stored samples were analyzed by PXRD.

[11] = 150 mg omaveloxolone alone (Reference), plasma
[12] = 200 mg itraconazole QD + 150 mg omaveloxolone (Test), plasma
[13] = Test vs Reference statistical analysis
[14] = Test: 200 mg itraconazole QD + 150 mg omaveloxolone, n = 13
[15] = omaveloxolone + itraconazole vs omaveloxolone alone
[16] = ASCEND, avosentan 25 mg (N = 455)
[17] = ASCEND, avosentan 50 mg (N = 478)

CCC(C)n1ncn(-c2ccc(N3CCN(c4ccc(OCC5COC(Cn6cncn6)(c6ccc(Cl)cc6Cl)O5)cc4)CC3)cc2)c1=O (stereo not shown) [itraconazole]
Peak plasma level at steady state ([1]; 100 mg once daily): 0.5 µg/mL
Peak plasma level at steady state ([1]; 200 mg once daily): 1.1 µg/mL
Peak plasma level at steady state ([1]; 200 mg twice daily): 2.0 µg/mL
Renal excretion of itraconazole and hydroxy-itraconazole ([1]; in vivo): less than 1 % of an intravenous dose
Time to peak steady state ([1]; repeated administration): about 15 days
Subjects with a TEAE, n (%) [2]: 1 (6.7%)

CC1(C)CC[C@]2(NC(=O)C(C)(F)F)CC[C@]3(C)[C@H](C(=O)C=C4[C@@]5(C)C=C(C#N)C(=O)C(C)(C)[C@@H]5CC[C@]43C)[C@@H]2C1 [Omaveloxolone]
AUC0-t, geometric mean [3, 11]: 1730 ng·h/mL
AUC0-∞, geometric mean [3, 11]: 1730 ng·h/mL
CL/F, geometric mean [3, 11]: 86.7 L/h
Cmax, geometric mean [3, 11]: 43.0 ng/mL
t1/2, geometric mean [3, 11]: 89.8 h
Increase in systemic exposure, AUC0-∞, with itraconazole ([3]; 150 mg, itraconazole 200 mg QD): approximately 4 fold
Increase in systemic exposure, Cmax, with itraconazole ([3]; 150 mg, itraconazole 200 mg QD): ~3 fold
Ratio (90% CI) of geometric LS means, AUC0-∞ (with itraconazole vs alone) ([3]; 150 mg, itraconazole 200 mg QD): 4.12 (3.48, 4.87)
Ratio (90% CI) of geometric LS means, Cmax (with itraconazole vs alone) ([3]; 150 mg, itraconazole 200 mg QD): 2.77 (2.17, 3.54)
AUC0-t, geometric mean [3, 12]: 6340 ng·h/mL
AUC0-∞, geometric mean [3, 12]: 7280 ng·h/mL
CL/F, geometric mean [3, 12]: 20.6 L/h
Cmax, geometric mean [3, 12]: 116 ng/mL
t1/2, geometric mean [3, 12]: 78.1 h
AUC0-∞, GLSM ([3]; Reference: 150 mg omaveloxolone alone, n = 14): 1730 ng·h/mL
Cmax, GLSM ([3]; Reference: 150 mg omaveloxolone alone, n = 15): 43.0 ng/mL
AUC0-∞, Within-subject CV % [3, 13]: 24.4%
Cmax, Within-subject CV % [3, 13]: 36.8%
AUC0-∞, GLSM [3, 14]: 7130 ng·h/mL
Cmax, GLSM [3, 14]: 119 ng/mL
half-life ([3]; both, human, plasma, oral, 150 mg): 89.8 h
Tmax ([3]; both, human, plasma, oral, 150 mg, Median Tmax (min-max), 150 mg single dose, alone): 12 h
Tmax ([3]; both, human, plasma, oral, 150 mg, tmax, median, Reference: 150 mg omaveloxolone alone, n = 15, Wilcoxon signed rank analysis): 8 h
Tmax ([3]; both, human, plasma, oral, Median Tmax (min-max), 150 mg co-administered with 200 mg itraconazole QD): 6 h
Tmax ([3]; both, human, plasma, oral, tmax, median, Test: 200 mg itraconazole QD + 150 mg omaveloxolone, n = 13, Wilcoxon signed rank analysis): 6 h
Within-subject variability of AUC0-∞, geometric CV % ([3]; human, in vivo): 24.4%
Within-subject variability of Cmax, geometric CV % ([3]; human, in vivo): 36.8%
AUC0-∞, Ratio of GLSMs (Test:Reference) [3, 15]: 4.12
Cmax, Ratio of GLSMs (Test:Reference) [3, 15]: 2.77
Subjects reporting TEAEs ([3]; omaveloxolone alone, 15 subjects): 2 subjects
Subjects reporting TEAEs ([3]; omaveloxolone in combination with itraconazole): no subjects reported TEAEs
Clinical laboratory evaluations, vital signs, ECG parameters ([3]; whole study): no clinically significant findings
Deaths or SAEs ([3]; whole study): no deaths or SAEs
Protection from hydrogen peroxide-induced oxidative stress (cerebral granule neurons): significant protection
Metabolizing enzyme (CYP3A4/5 [4]): metabolized by CYP3A4
Km (CYP3A4/5 [5]): 1.12 µM

COc1ccccc1Oc1c(NS(=O)(=O)c2ccc(C)cn2)nc(-c2ccncc2)nc1OC [avosentan]
Occurrence of Death [6, 16]: 3.6%
Occurrence of ESRD [6, 16]: 4.4%
Occurrence of Death [6, 17]: 4.6%
Occurrence of ESRD [6, 17]: 5.0%
Death ([6]; ASCEND): modest, non-significant increase in death
ESRD events ([6]; ASCEND): small, numerical reduction in ESRD events
Risk of congestive heart failure (CHF) ([6]; human, in vivo): approximate three-fold increase

CC1(C)CC[C@]2(NC(=O)C(C)(F)F)CC[C@]3(C)[C@H](C(=O)C=C4[C@@]5(C)C=C(C#N)C(=O)C(C)(C)[C@@H]5CC[C@]43C)[C@@H]2C1
Hygroscopicity, mass gain ([7]; from 50% r.h. to 85% r.h.): ~0.7 wt.-%

CC1(C)CC[C@]2(C(=O)O)CC[C@]3(C)[C@H](C(=O)C=C4[C@@]5(C)C=C(C#N)C(=O)C(C)(C)[C@@H]5CC[C@]43C)[C@@H]2C1 [CDDO, 2-cyano-3,12-dioxooleane-1,9(11)-dien-28-oic acid]
Replication of HIV (HIV): can inhibit the replication of HIV in macrophages

COC(=O)[C@]12CCC(C)(C)C[C@H]1[C@H]1C(=O)C=C3[C@@]4(C)C=C(C#N)C(=O)C(C)(C)[C@@H]4CC[C@@]3(C)[C@]1(C)CC2 [Form B CDDO-Me]
Oral bioavailability [8]: higher than that of Form A

CC1(C)CC[C@]2(NC(=O)C(C)(F)F)CC[C@]3(C)[C@H](C(=O)C=C4[C@@]5(C)C=C(C#N)C(=O)C(C)(C)[C@@H]5CC[C@]43C)[C@@H]2C1 [RTA 408 amorphous form]
Chemical stability, decomposition [9]: Decomposition ≥1% was observed only for solutions in MeCN after 7 days and for suspensions in the 1% aqueous Tween 80 medium
Stability under elevated temperature and humidity conditions [10]: stable for at least four weeks; also recorded: None of the samples differed from the amorphous starting material
Hygroscopicity, Δm ([7]; DVS, 50%→85% r.h.): +0.4%

— patent US20240293351A1, “METHODS OF ADMINISTERING SYNTHETIC TRITERPENOIDS” (REATA PHARMACEUTICALS HOLDINGS, LLC, priority 2020, published 2024)
